“Also recorded” adds a separate entry of the source.

The subject of one experiment is C fiber mediated pain. The following applies: background statement; cited from earlier work.
The target in a further experiment is T1, TRPV1 (Rattus norvegicus, UniProt O35433).
T1 construct: DRG cells TRPV1 positive cells (Type 2) and TRPV2 positive cells (Type 4) were irradiated; from tissue; host or cells: primary neurons dissociated from rat dorsal root ganglia (type 2 cells)
Put plainly: Whole cell patch recording of diode laser evoked inward currents in TRPV1 positive (type 2) DRG cells. The experiment is classed as cell-based. Conditions: capsazepine 10 uM, close superfusion, two minute application; laser pulses 20 ms and 2.41 W (1200 mA).

For the next experiment, the system named is C fibers. As to the kind of experiment: Threshold pulse duration for hot pain by 980 nm diode laser, stimulation of C fibers. Type of experiment: in vivo, human. The following applies: healthy volunteer affected by topical capsaicin. As to the method: Subjects: A chronic pain patient with hypersensitivity and a healthy volunteer were tested. Both subjects gave informed consent and the experiments were approved by the local institutional review board. The hairy skin of left hand was used for both volunteers. In preparing the subjects testing, they were asked to respond orally immediately after they perceived any threshold sensation and/or to interrupt lasing pulse by pressing STOP button. They then described the level and type of evoked sensation, location of sensation, how long the sensation lasted, whether the sensation was single (monomodal) sensation or if there were more than one evoked sensations by a single stimulation. Afterwards, the threshold pulse was applied 3 times to different areas with interval of ˜3 min or after the previous sensation (pain) had disappeared. The appearance redness was an indication of skin irritation. Step 1: To test duration of pulse that evoked threshold warmth sensation only, the output power was set to 1.5 W, beam size adjusted to 5 mm. The pulse was applied to the skin. When the volunteer reported warmth (pain) sensation the lasing was stopped. […] The pulse duration for tolerance for hot pain was 2000 ms. […] When this button was pushed the command “stop lasing” was activated, duration of applied pulse was measured and it was indicated on the screen of PC connected to the device by RS232 interface. […]

T1 sequence (O35433 whole entry): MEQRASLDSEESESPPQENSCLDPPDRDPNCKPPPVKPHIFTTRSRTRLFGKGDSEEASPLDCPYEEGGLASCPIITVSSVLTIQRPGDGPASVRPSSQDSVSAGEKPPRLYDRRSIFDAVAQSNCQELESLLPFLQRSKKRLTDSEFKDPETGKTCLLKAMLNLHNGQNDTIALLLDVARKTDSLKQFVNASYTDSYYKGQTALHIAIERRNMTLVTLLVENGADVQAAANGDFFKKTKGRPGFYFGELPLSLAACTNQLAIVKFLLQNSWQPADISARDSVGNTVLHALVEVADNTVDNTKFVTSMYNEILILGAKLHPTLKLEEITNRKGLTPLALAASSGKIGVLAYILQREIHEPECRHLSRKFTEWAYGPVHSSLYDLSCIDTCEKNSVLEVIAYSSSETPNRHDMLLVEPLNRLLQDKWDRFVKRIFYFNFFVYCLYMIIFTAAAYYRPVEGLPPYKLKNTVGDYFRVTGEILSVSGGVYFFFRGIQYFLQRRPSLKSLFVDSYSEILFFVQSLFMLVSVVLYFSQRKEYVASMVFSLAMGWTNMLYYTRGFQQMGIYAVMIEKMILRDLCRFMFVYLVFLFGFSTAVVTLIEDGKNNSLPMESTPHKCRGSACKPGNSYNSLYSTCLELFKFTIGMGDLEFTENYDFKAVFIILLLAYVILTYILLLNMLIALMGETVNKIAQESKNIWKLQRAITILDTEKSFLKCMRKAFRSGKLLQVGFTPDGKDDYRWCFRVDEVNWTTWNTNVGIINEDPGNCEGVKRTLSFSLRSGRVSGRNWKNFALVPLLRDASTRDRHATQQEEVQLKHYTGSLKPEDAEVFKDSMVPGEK
Procedure for TRPV1: Rats were anesthetized with halothane. Following decapitation, the spinal cord was rapidly removed, and the dorsal root ganglia were dissected free. Dissected ganglia were placed in a heated bath (35° C. for 70 min) containing dispase II and collagenase (2 mg/ml; Sigma type 1). Following wash and trituration, recovered cells were plated on 10 polylysine coated, 35 mm Petri dishes. Cells were bathed continuously in a rat Tyrode's solution containing (mM): 140 NaCl, 4 KCl, 2 MgCl2, 2 CaCl2, 10 glucose, and 10 HEPES, pH adjusted to 7.4 with NaOH. Only one cell was used from each dish. Bath temperature was maintained at 32° C. by a feedback-controlled bath heater (TCbip; Cell Microsystems).
Electrodes were prepared (2-4 MΩ) from glass pipettes using a Brown and Flaming type horizontal puller (Sutter model P87). Whole cell recordings were made with an Axopatch 200B (Axon Instruments). Stimuli were controlled and digital records captured with pClamp 8.2 software and Digidata 1322A A/D converter (Axon Instruments). Series resistance (Rs) was compensated 40-60% with Axopatch 200B compensation circuitry. Whole cell resistance and capacitance was determined by Clampex 8.2 software utility. A liquid junction potential of approximately 4 mV was not corrected.
Recordings were made from cells with diameters between 25 and 45 μm.
Lass 10 M investigational diode laser (Lasmed LLC) was used in all studies. […]

Consider `CN1CC[C@]23c4c5ccc(O)c4O[C@H]2[C@@H](O)C=C[C@H]3[C@H]1C5` [morphine], for which the “effectiveness in inhibiting C fiber mediated pain compared with A delta fiber mediated pain” value with C fiber mediated pain was “much more effective”. Take `Oc1cc2c(cc1O)CN(C(=S)NCCc1ccc(Cl)cc1)CCC2` [capsazepine]: the “currents evoked by 980 nm stimuli” value at TRPV1 was “dramatically reduced; also recorded: reduced currents”. Take `COc1cc(CNC(=O)CCCC/C=C/C(C)C)ccc1O` [Capsaicin]: the “threshold pulse duration by reflex time monitored with infrared CCD camera” value in the experiment on C fibers (1.5 W, 5 mm, without delay of individual reaction (1270 ms without capsaicin)) is recorded as 650 ms. Also, in the experiment on C fibers (output power 1.5 W, beam size 5 mm, hairy skin of left hand, lasing stopped by volunteer (1300 ms without capsaicin)), the “threshold pulse duration for hot pain” value came to 800 ms.
